The results in this text go back to patent EP0549365A1, “Thiazolidine compounds, their preparation and their therapeutic uses” (Sankyo Company Limited, priority 1991, dated 1993).

The assay has as its system diabetic male mice of the KK strain. As to the kind of experiment: Hypoglycemic activity (blood glucose lowering in diabetic KK mice). It is filed as in vivo. The settings on record: Mus musculus, 50 mg/kg oral, blood from tail vein after 18 hours free feeding, relative to solvent group, read-out: BGL lowering rate (%). On the procedure: The test animals used were diabetic male mice of the KK strain, each having a body weight more than 40 g. Each animal was orally administered 50 mg/kg of a test compound and then allowed to feed freely for 18 hours. At the end of this time, blood was collected from the tail veins without anesthesia. The blood glucose level (BGL) was determined by means of a glucose analyzer (GL-101, manufactured by Mitsubishi Kasei Co.).
The blood glucose lowering rate was calculated by the following equation: Blood glucose lowering rate (%) = [(BGLs - BGLt )/BGLs ] x 100 [formula] where: BGLs is the BGL in the group administered a solvent; and BGLt is the BGL in the group administered a test compound.
With `CC1=C(C)C(=O)C(CCC(C)(O)COc2ccc(CC3SC(=O)NC3=O)cc2)=C(C)C1=O` (centres unmarked) [Control 1, 5-{4-[2-Methyl-2-hydroxy-4-(3,5,6-trimethyl-1,4-benzoquinon-2-yl)butoxy]benzyl}thiazolidine-2,4-dione, reference compound], the inhibition in vivo at 50 mg/kg was -0.5%.
The value for `Cc1c(C)c(O)c(CCC(C)(O)COc2ccc(CC3SC(=O)NC3=O)cc2)c(C)c1O` (centres unmarked) [Control 2, 5-{4-[4-(2,5-Dihydroxy-3,4,6-trimethylphenyl)-2-hydroxy-2-methylbutoxy]benzyl}thiazolidine-2,4-dione, reference compound] was 10.4%; that for `CC(=O)Oc1c(C)c(C)c(OC(C)=O)c(Oc2ccc(CC3SC(=O)NC3=O)cc2)c1C` (centres unmarked) [Example 7, 5-[4-(2,5-Diacetoxy-3,4,6-trimethylphenoxy)benzyl]thiazolidine-2,4-dione] was 24%.
The value for `COc1c(C)c(C)c(OC)c(COc2ccc(CC3SC(=O)NC3=O)cc2)c1C` (centres unmarked) [Example 9] was 28.8%; that for `COc1c(C)c(C)c(OC)c(CCCOc2ccc(CC3SC(=O)NC3=O)cc2)c1C` (centres unmarked) [Example 10, 5-{4-[3-(2,4,5-trimethyl-3,6-dimethoxyphenyl)propoxy]benzyl}thiazolidine-2,4-dione] was 46%; that for `COc1c(C)c(C)c(OC)c(CCCCOc2ccc(CC3SC(=O)NC3=O)cc2)c1C` (centres unmarked) [Example 12] was 24%.
Consider `COc1c(C)c(CCOc2ccc(CC3SC(=O)NC3=O)cc2)c(OC)c(OC)c1OC` (centres unmarked) [Example 16], for which the inhibition in vivo at 50 mg/kg is 20.2%.
For the molecule `COc1c(C)c(CCCOc2ccc(CC3SC(=O)NC3=O)cc2)c(OC)c(OC)c1OC` (centres unmarked) [Example 18], the inhibition in vivo at 50 mg/kg turned out to be 22%.
The value for `COc1c(C)c(CCCCOc2ccc(CC3SC(=O)NC3=O)cc2)c(OC)c(OC)c1OC` (centres unmarked) [Example 19] was 26.6%; that for `CC(=O)Oc1c(C)c(C)c(OC(C)=O)c(CCOc2ccc(CC3SC(=O)NC3=O)cc2)c1C` (centres unmarked) [Example 21] was 33.4%; that for `CC(=O)Oc1c(C)c(C)c(OC(C)=O)c(CCCOc2ccc(CC3SC(=O)NC3=O)cc2)c1C` (centres unmarked) [Example 23] was 24.4%.
For `COc1cc(COc2ccc(CC3SC(=O)NC3=O)cc2)c(OC)c2ccccc12` (centres unmarked) [Example 31] the value was 32.9%.
For `COc1c(C)c(COc2ccc(CC3SC(=O)NC3=O)cc2)c(OC)c2ccccc12` (centres unmarked) [Example 33] the value was 28.4%; for `COc1cc(CCOc2ccc(CC3SC(=O)NC3=O)cc2)c(OC)c2ccccc12` (centres unmarked) [Example 34], 40%.
